From patent US9758508B2, “2,3-dihydro-isoindole-1-on derivative as BTK kinase suppressant, and pharmaceutical composition including same” (CRYSTALGENOMICS, INC., priority 2012, dated 2017) come the findings set out here.

The target of the assay is BTK (Homo sapiens (Human), UniProt Q06187). In words: Assay for BTK inhibition activity (ELISA method). In kind it is biochemical. The settings on record: 0.4 nM BTK enzyme, 50 μM ATP, 20 minutes at 30° C. The method, then:
In order to evaluate the activity of the compounds of the present invention as a BTK inhibitor, commercially available BTK (Promega) was used for this experiment. Specifically, an enzymatic reaction was conducted by mixing 0.4 nM of BTK enzyme, 40 μM of biotin-S1 substrate peptide and 50 μM of ATP in a reaction buffer (15 mM Tris-HCl (pH 7.5), 20 mM MgCl2, 2 mM MnCl2, 2 mM DTT, 0.1 mg/ml BSA). The mixture was treated with the test compounds at predetermined concentrations and allowed to react for 20 minutes at 30° C. Upon completion of the reaction, the activities of the test compounds were measured by ELISA method. The absorbance value of an untreated sample was used as a control (100% control). BTK enzyme activities were measured after treatment with various concentrations of the test compounds, and the concentration of test compounds resulting in 50% inhibition of BTK enzyme as compared to the control was determined as IC50 of BTK inhibitor.
For orientation: In an ELISA, binding on a coated surface is turned into a signal by an enzyme label.

Structures are written as SMILES.

Chain of BTK (Q06187 whole entry): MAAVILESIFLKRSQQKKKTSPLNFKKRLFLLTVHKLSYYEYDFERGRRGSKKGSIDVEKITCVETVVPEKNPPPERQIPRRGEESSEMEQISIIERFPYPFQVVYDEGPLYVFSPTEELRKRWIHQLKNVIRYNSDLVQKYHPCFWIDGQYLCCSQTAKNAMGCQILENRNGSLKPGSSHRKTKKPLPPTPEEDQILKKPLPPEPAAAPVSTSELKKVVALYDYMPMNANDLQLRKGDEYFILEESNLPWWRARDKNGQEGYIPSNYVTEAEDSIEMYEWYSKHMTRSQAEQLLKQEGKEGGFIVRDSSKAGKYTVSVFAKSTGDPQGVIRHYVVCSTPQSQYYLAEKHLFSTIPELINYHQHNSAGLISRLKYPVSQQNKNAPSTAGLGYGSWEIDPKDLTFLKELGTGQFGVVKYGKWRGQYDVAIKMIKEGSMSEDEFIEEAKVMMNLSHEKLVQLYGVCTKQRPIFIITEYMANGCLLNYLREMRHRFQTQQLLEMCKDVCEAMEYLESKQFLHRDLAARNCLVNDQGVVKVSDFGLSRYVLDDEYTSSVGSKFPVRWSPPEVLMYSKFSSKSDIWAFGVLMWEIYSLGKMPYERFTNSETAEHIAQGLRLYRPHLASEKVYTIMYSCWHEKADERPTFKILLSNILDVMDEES

For the molecule `Cc1cnc(-c2ccc(-c3ccc(NC(=O)Nc4c(F)cccc4F)cc3F)c3c2C(=O)NC3)[nH]1` [Compound 3, 1-(2,6-difluoro-phenyl)-3-{3-fluoro-4-[7-(5-methyl-1H-imidazol-2-yl)-1-oxo-2,3-dihydro-1H-isoindol-4-yl]-phenyl}-urea], the concentration for half-maximal inhibition (IC50) amounted to 1 nM.
The value for `Cc1cnc(-c2ccc(-c3ccc(NC(=O)Nc4c(F)cccc4Cl)cc3F)c3c2C(=O)NC3)[nH]1` [Compound 4, 1-(2-chloro-6-fluoro-phenyl)-3-{3-fluoro-4-[7-(5-methyl-1H-imidazol-2-yl)-1-oxo-2,3-dihydro-1H-isoindol-4-yl]-phenyl}-urea] was 0.9 nM; that for `Cc1cnc(-c2ccc(-c3ccc(NC(=O)Nc4c(F)cc(F)cc4F)cc3F)c3c2C(=O)NC3)[nH]1` [Compound 7, 1-{3-fluoro-4-[7-(5-methyl-1H-imidazol-2-yl)-1-oxo-2,3-dihydro-1H-isoindol-4-yl]-phenyl}-3-(2,4,6-trifluoro-phenyl)-urea] was 0.1 nM.
For `Cc1cnc(-c2ccc(-c3ccc(NC(=O)Nc4c(F)c(F)c(F)c(F)c4F)cc3F)c3c2C(=O)NC3)[nH]1` [Compound 9, 1-{3-fluoro-4-[7-(5-methyl-1H-imidazol-2-yl)-1-oxo-2,3-dihydro-1H-isoindol-4-yl]-phenyl}-3-pentafluorophenyl-urea] the value was 0.4 nM; for `Cc1cnc(-c2ccc(-c3ccc(NC(=O)Nc4c(F)ccc(F)c4F)cc3F)c3c2C(=O)NC3)[nH]1` [Compound 12, 1-{3-fluoro-4-[7-(5-methyl-1H-imidazol-2-yl)-1-oxo-2,3-dihydro-1H-isoindol-4-yl]-phenyl}-3-(2,3,6-trifluoro-phenyl)-urea], 0.28 nM; for `Cc1cnc(-c2ccc(-c3ccc(NC(=O)Nc4ccc(F)c(F)c4)cc3F)c3c2C(=O)NC3)[nH]1` [Compound 14, 1-(3,4-difluoro-phenyl)-3-{3-fluoro-4-[7-(5-methyl-1H-imidazol-2-yl)-1-oxo-2,3-dihydro-1H-isoindol-4-yl]-phenyl}-urea], 5.6 nM.
The value for `Cc1cnc(-c2ccc(-c3ccc(NC(=O)Nc4ccc(C#N)c(F)c4)cc3F)c3c2C(=O)NC3)[nH]1` [Compound 15, 1-(4-cyano-3-fluorophenyl)-3-(3-fluoro-4-(7-(5-methyl-1H-imidazol-2-yl)-1-oxoisoindolin-4-yl)phenyl)urea] was 5 nM.
The molecule `Cc1cnc(-c2ccc(-c3ccc(NC(=O)Nc4c(F)ccc(Cl)c4F)cc3F)c3c2C(=O)NC3)[nH]1` [Compound 17, 1-(3-chloro-2,6-difluorophenyl)-3-(3-fluoro-4-(7-(5-methyl-1H-imidazol-2-yl)-1-oxoisoindolin-4-yl)phenyl)urea] showed an IC50 of 0.05 nM.
The molecule `Cc1cnc(-c2ccc(-c3ccc(NC(=O)Nc4c(F)ccc(F)c4Cl)cc3F)c3c2C(=O)NC3)[nH]1` [Compound 18, 1-(2-chloro-3,6-difluorophenyl)-3-(3-fluoro-4-(7-(5-methyl-1H-imidazol-2-yl)-1-oxoisoindolin-4-yl)phenyl)urea] displayed an IC50 of 0.07 nM.
The value for `Cc1cnc(-c2ccc(-c3ccc(NC(=O)Nc4c(F)cc(Cl)cc4F)cc3F)c3c2C(=O)NC3)[nH]1` [Compound 19, 1-(4-chloro-2,6-difluoro-phenyl)-3-{3-fluoro-4-[7-(5-methyl-1H-imidazol-2-yl)-1-oxo-2,3-dihydro-1H-isoindol-4-yl]-phenyl}-urea] was 4 nM.
Regarding `Cc1cnc(-c2ccc(-c3ccc(NC(=O)Nc4c(F)c(F)cc(F)c4F)cc3F)c3c2C(=O)NC3)[nH]1` [Compound 20, 1-{3-fluoro-4-[7-(5-methyl-1H-imidazol-2-yl)-1-oxo-2,3-dihydro-1H-isoindol-4-yl]-phenyl}-3-(2,3,5,6-tetrafluoro-phenyl)-urea], half-maximal inhibition (IC50) was put at 0.9 nM.

What is called IC50 is the midpoint of a concentration-inhibition curve. Read a low IC50 as greater potency.
